{"source": "patent US10351500B2", "about": "“Method of using of dihydro-resveratrol or its stilbenoid derivatives and/or chemical variants as antimicrobial agents” (Hong Kong Baptist University, priority 2015, dated 2019)", "key": {"[1]": {"tested_on": "human colorectal carcinoma HCT-116 cell line", "assay": "MTT cell viability assay, HCT-116", "format": "cell-based", "details": "HCT-116 colorectal carcinoma, 24 h", "description": "(§1) The human colorectal carcinoma HCT-116 cell line, human pancreatic ductal adenocarcinoma PANC-1 cell line, human melanoma A375 cell line and human embryonic kidney HEK293 cell line were purchased from the American Type Culture Collection. Cells were cultured in high glucose DMEM growth medium supplemented with 10% fetal bovine serum, penicillin and streptomycin (100 U) in a humidified atmosphere of 5% CO2, 95% air at 37° C. Upon the addition of dihydro-resveratrol (D-res) to the HCT-116, PANC-1, A375 or HEK293 cells seeded at a density of 8000 cells per well in a 96-well plate format, the viability of the testing cells was determined 24 h post treatment using the (3-(4,5-dimethylthiazol-2-yl)-2,5-diphenyltetrazolium bromide) tetrazolium (MTT) reduction assay and expressed as growth inhibition of 50% (GI50, Table 6)."}, "Trichophyton rubrum": {"tested_on": "Trichophyton rubrum", "assay": "anti-fungal growth inhibition, T. rubrum", "format": "cell-based", "details": "Trichophyton rubrum, 168 h"}, "[2]": {"tested_on": "human melanoma A375 cell line", "assay": "MTT cell viability assay, A375", "format": "cell-based", "details": "A-375, 24 h", "description": "as §1"}, "pancreatic acinar cells": {"tested_on": "pancreatic acinar cells", "format": "cell-based", "details": "rat, 24 h", "description": "Functional intact acini were dissociated from pancreatic tissue using collagenase digestion with mild shearing forces. Acini were cultured in Dulbecco's modification of Eagle's medium (GIBCO) supplemented with 5% fetal bovine serum (GIBCO), 1% penicillin-streptomycin (GIBCO) in a 5% CO2, 95% air humidified atmosphere at 37° C. […] MTT reagent was added to the cells at the end of the 24-hour treatment period. After a 3-hour reaction time, MTT products were dissolved in DMSO and absorbance at 570 nm was taken."}, "[3]": {"tested_on": "cerulein-induced chronic pancreatitis", "assay": "cerulein-induced chronic pancreatitis in mice, oral treatment", "format": "in vivo, C57/BL6 mice", "description": "Evaluation of biological activities. C57/BL6 mice aged 28 days weighing in the range of 20 to 25 g were randomly assigned into 4 groups of 6 to 8 individuals. The mice were housed with an ambient temperature of 23±2° C., a relative humidity of 60 to 80% and a 12-h light/dark cycle. Prior to the glucose tolerance test, the mice were starved overnight but allowed with free access to water. Experimental chronic pancreatitis was induced in the mice by four hourly i.p. injections of cerulein at the supramaximally stimulating dose (50 μg/kg) a day, 3 days a week, in a total of 6 weeks. The control group received injections of 0.9% saline instead of cerulein in the same volume and at same time intervals. The treatment groups given with cerulein and oral doses of dihydro-resveratrol (20 mg/kg/day) were designated as Cer+D-res. […] Thus, it concludes that an effective dosage of dihydro-resveratrol is at least 20 mg/kg/day. […] At the end of the 6-week experiment, mice were subjected to the intraperitoneal glucose tolerance test (IPGTT). Mice had been starved for 14 hours prior to the IPGTT, in which a 15% (w/v) glucose solution was injected to individual animals at 1.5 g glucose per kg body weight. About 1 μL of blood will be obtained from the tail vein, and blood glucose levels were monitored 30 min before (i.e. fasting level) and 10, 20, 30 and 60 min after glucose injection using a glucometer (Medisign, Korea). Upon scarification, pancreases were immediately removed, weighed, trimmed from fat and fixed in 4% paraformaldehyde-phosphate buffered saline overnight at 4° C. Samples were then processed, embedded in paraffin wax, sectioned and subjected to immunostaining."}}, "data": [{"smiles": "Oc1ccc(CCc2cc(O)cc(O)c2)cc1", "note": "[Dihydro-resveratrol, trans-3,5,4′-trihydroxybibenzyl]", "values": [{"measurement": "GI50", "setting": "[1]", "value": "102 ± 5.21", "unit": "µM"}, {"measurement": "inhibition at 25 µM", "setting": "Trichophyton rubrum; read-out: Inhibition rate (25 μM)", "value": 2.75, "unit": "%"}, {"measurement": "inhibition at 50 µM", "setting": "Trichophyton rubrum; read-out: Inhibition rate (50 μM)", "value": 6.84, "unit": "%"}, {"measurement": "inhibition at 100 µM", "setting": "Trichophyton rubrum; read-out: Inhibition rate (100 μM)", "value": 22.5, "unit": "%"}, {"measurement": "GI50", "setting": "[2]", "value": "107 ± 3.37", "unit": "µM"}, {"measurement": "cytotoxicity (MTT, mitochondrial metabolic rates)", "setting": "pancreatic acinar cells", "value": "approximately 500 μM"}, {"measurement": "fibrosis formation, 50 mg/kg/day versus 20 mg/kg/day", "setting": "[3]", "value": "no statistically significant difference"}, {"measurement": "pancreatic beta-cell area (insulin immunofluorescence)", "setting": "[3]; 20 mg/kg/day oral", "value": "restoration of beta-cell area"}, {"measurement": "FN1 deposition in pancreatic parenchyma", "setting": "[3]; 20 mg/kg/day oral, 3 weeks", "value": "reduces such deposition"}, {"measurement": "impaired glucose tolerance (IPGTT)", "setting": "[3]; 20 mg/kg/day oral, 3 weeks", "value": "significantly rectified"}, {"measurement": "adverse effect", "setting": "[3]; 50 mg/kg/day", "value": "no adverse effect"}]}]}
